{"source": "PubChem BioAssay (NCI)", "test_in_all_cases": "NCI anticancer screen, dose series, 384-well format", "key": {"786-0 renal": {"tested_on": "786-0 renal"}, "A498 renal": {"tested_on": "A498 renal"}, "A549 NSCLC": {"tested_on": "A549 NSCLC"}, "ACHN renal": {"tested_on": "ACHN renal"}, "BT-549 breast": {"tested_on": "BT-549 breast"}, "CAKI-1 renal": {"tested_on": "CAKI-1 renal"}, "CCRF-CEM leukemia": {"tested_on": "CCRF-CEM leukemia"}, "COLO 205 colon": {"tested_on": "COLO 205 colon"}, "EKVX NSCLC": {"tested_on": "EKVX NSCLC"}, "HCC-2998 colon": {"tested_on": "HCC-2998 colon"}, "HCT-15 colon": {"tested_on": "HCT-15 colon"}, "HL-60(TB) leukemia": {"tested_on": "HL-60(TB) leukemia"}, "HOP-62 NSCLC": {"tested_on": "HOP-62 NSCLC"}, "HOP-92 NSCLC": {"tested_on": "HOP-92 NSCLC"}, "HT29 colon": {"tested_on": "HT29 colon"}, "K-562 leukemia": {"tested_on": "K-562 leukemia"}, "KM12 colon": {"tested_on": "KM12 colon"}, "LOX IMVI melanoma": {"tested_on": "LOX IMVI melanoma"}, "MALME-3M melanoma": {"tested_on": "MALME-3M melanoma"}, "MCF7 breast": {"tested_on": "MCF7 breast"}, "MDA-MB-231 breast": {"tested_on": "MDA-MB-231 breast"}, "MDA-MB-468 breast": {"tested_on": "MDA-MB-468 breast"}, "NCI-H226 lung": {"tested_on": "NCI-H226 lung"}, "NCI-H23 lung": {"tested_on": "NCI-H23 lung"}, "NCI-H322M lung": {"tested_on": "NCI-H322M lung"}, "NCI-H460 NSCLC": {"tested_on": "NCI-H460 NSCLC"}, "OVCAR-3 ovarian": {"tested_on": "OVCAR-3 ovarian"}, "OVCAR-8 ovarian": {"tested_on": "OVCAR-8 ovarian"}, "PC-3 prostate": {"tested_on": "PC-3 prostate"}, "RPMI-8226 leukemia": {"tested_on": "RPMI-8226 leukemia"}, "RXF 393 renal": {"tested_on": "RXF 393 renal"}, "SF-268 CNS": {"tested_on": "SF-268 CNS"}, "SF-295 CNS": {"tested_on": "SF-295 CNS"}, "SF-539 CNS": {"tested_on": "SF-539 CNS"}, "SK-MEL-2 melanoma": {"tested_on": "SK-MEL-2 melanoma"}, "SK-MEL-28 melanoma": {"tested_on": "SK-MEL-28 melanoma"}, "SK-MEL-5 melanoma": {"tested_on": "SK-MEL-5 melanoma"}, "SN12C renal": {"tested_on": "SN12C renal"}, "SNB-19 CNS": {"tested_on": "SNB-19 CNS"}, "SNB-75 CNS": {"tested_on": "SNB-75 CNS"}, "SR leukemia": {"tested_on": "SR leukemia"}, "SW-620 colon": {"tested_on": "SW-620 colon"}, "T-47D breast": {"tested_on": "T-47D breast"}, "TK-10 renal": {"tested_on": "TK-10 renal"}, "UACC-257 melanoma": {"tested_on": "UACC-257 melanoma"}, "UACC-62 melanoma": {"tested_on": "UACC-62 melanoma"}, "UO-31 renal": {"tested_on": "UO-31 renal"}}, "note": "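GI50 = concentration required for 50% inhibition of growth. TGI: total growth inhibition.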"}
{"smiles": "C=CC(=O)N1CCC(CNc2ncnc(N)c2-c2ccc(Oc3ccccc3)cc2)CC1", "values": [{"measurement": "GI50", "setting": "786-0 renal", "result": 18.7, "unit": "µM"}, {"measurement": "TGI", "setting": "786-0 renal", "result": 42.9, "unit": "µM"}, {"measurement": "GI50", "setting": "A498 renal", "result": 17.2, "unit": "µM"}, {"measurement": "TGI", "setting": "A498 renal", "result": 37, "unit": "µM"}, {"measurement": "GI50", "setting": "A549 NSCLC", "result": 21, "unit": "µM"}, {"measurement": "TGI", "setting": "A549 NSCLC", "result": 55.4, "unit": "µM"}, {"measurement": "GI50", "setting": "ACHN renal", "result": 25.4, "unit": "µM"}, {"measurement": "TGI", "setting": "ACHN renal", "result": 66.4, "unit": "µM"}, {"measurement": "GI50", "setting": "BT-549 breast", "result": 14.1, "unit": "µM"}, {"measurement": "TGI", "setting": "BT-549 breast", "result": 28.6, "unit": "µM"}, {"measurement": "GI50", "setting": "CAKI-1 renal", "result": 16.9, "unit": "µM"}, {"measurement": "TGI", "setting": "CAKI-1 renal", "result": 43.1, "unit": "µM"}, {"measurement": "GI50", "setting": "CCRF-CEM leukemia", "result": 17.2, "unit": "µM"}, {"measurement": "TGI", "setting": "CCRF-CEM leukemia", "result": 31, "unit": "µM"}, {"measurement": "GI50", "setting": "COLO 205 colon", "result": 22.5, "unit": "µM"}, {"measurement": "TGI", "setting": "COLO 205 colon", "result": 49.9, "unit": "µM"}, {"measurement": "GI50", "setting": "EKVX NSCLC", "result": 20.1, "unit": "µM"}, {"measurement": "TGI", "setting": "EKVX NSCLC", "result": 48.7, "unit": "µM"}, {"measurement": "GI50", "setting": "HCC-2998 colon", "result": 18.7, "unit": "µM"}, {"measurement": "TGI", "setting": "HCC-2998 colon", "result": 33.2, "unit": "µM"}, {"measurement": "GI50", "setting": "HCT-15 colon", "result": 23.6, "unit": "µM"}, {"measurement": "TGI", "setting": "HCT-15 colon", "result": 60, "unit": "µM"}, {"measurement": "GI50", "setting": "HL-60(TB) leukemia", "result": 11.8, "unit": "µM"}, {"measurement": "TGI", "setting": "HL-60(TB) leukemia", "result": 24, "unit": "µM"}, {"measurement": "GI50", "setting": "HOP-62 NSCLC", "result": 20.7, "unit": "µM"}, {"measurement": "TGI", "setting": "HOP-62 NSCLC", "result": 48.3, "unit": "µM"}, {"measurement": "GI50", "setting": "HOP-92 NSCLC", "result": 15.2, "unit": "µM"}, {"measurement": "TGI", "setting": "HOP-92 NSCLC", "result": 39.1, "unit": "µM"}, {"measurement": "GI50", "setting": "HT29 colon", "result": 25, "unit": "µM"}, {"measurement": "TGI", "setting": "HT29 colon", "result": 63.1, "unit": "µM"}, {"measurement": "GI50", "setting": "K-562 leukemia", "result": 15.2, "unit": "µM"}, {"measurement": "TGI", "setting": "K-562 leukemia", "result": 29.5, "unit": "µM"}, {"measurement": "GI50", "setting": "KM12 colon", "result": 23, "unit": "µM"}, {"measurement": "TGI", "setting": "KM12 colon", "result": 47.6, "unit": "µM"}, {"measurement": "GI50", "setting": "LOX IMVI melanoma", "result": 17.2, "unit": "µM"}, {"measurement": "TGI", "setting": "LOX IMVI melanoma", "result": 31, "unit": "µM"}, {"measurement": "GI50", "setting": "MALME-3M melanoma", "result": 30.5, "unit": "µM"}, {"measurement": "TGI", "setting": "MALME-3M melanoma", "result": "> 73.5", "unit": "µM"}, {"measurement": "GI50", "setting": "MCF7 breast", "result": 25.7, "unit": "µM"}, {"measurement": "TGI", "setting": "MCF7 breast", "result": 98.1, "unit": "µM"}, {"measurement": "GI50", "setting": "MDA-MB-231 breast", "result": 20.4, "unit": "µM"}, {"measurement": "TGI", "setting": "MDA-MB-231 breast", "result": 52.6, "unit": "µM"}, {"measurement": "GI50", "setting": "MDA-MB-468 breast", "result": 10.6, "unit": "µM"}, {"measurement": "TGI", "setting": "MDA-MB-468 breast", "result": 23.2, "unit": "µM"}, {"measurement": "GI50", "setting": "NCI-H226 lung", "result": 15.6, "unit": "µM"}, {"measurement": "TGI", "setting": "NCI-H226 lung", "result": 36, "unit": "µM"}, {"measurement": "GI50", "setting": "NCI-H23 lung", "result": 20.3, "unit": "µM"}, {"measurement": "TGI", "setting": "NCI-H23 lung", "result": 42.2, "unit": "µM"}, {"measurement": "GI50", "setting": "NCI-H322M lung", "result": 20.4, "unit": "µM"}, {"measurement": "TGI", "setting": "NCI-H322M lung", "result": "> 69.2", "unit": "µM"}, {"measurement": "GI50", "setting": "NCI-H460 NSCLC", "result": 19.6, "unit": "µM"}, {"measurement": "TGI", "setting": "NCI-H460 NSCLC", "result": 41.2, "unit": "µM"}, {"measurement": "GI50", "setting": "OVCAR-3 ovarian", "result": 16.1, "unit": "µM"}, {"measurement": "TGI", "setting": "OVCAR-3 ovarian", "result": 30.5, "unit": "µM"}, {"measurement": "GI50", "setting": "OVCAR-8 ovarian", "result": 21.2, "unit": "µM"}, {"measurement": "TGI", "setting": "OVCAR-8 ovarian", "result": "> 62.2", "unit": "µM"}, {"measurement": "GI50", "setting": "PC-3 prostate", "result": 18.5, "unit": "µM"}, {"measurement": "TGI", "setting": "PC-3 prostate", "result": 41.2, "unit": "µM"}, {"measurement": "GI50", "setting": "RPMI-8226 leukemia", "result": 9.92, "unit": "µM"}, {"measurement": "TGI", "setting": "RPMI-8226 leukemia", "result": 22.3, "unit": "µM"}, {"measurement": "GI50", "setting": "RXF 393 renal", "result": 15.1, "unit": "µM"}, {"measurement": "TGI", "setting": "RXF 393 renal", "result": 36.6, "unit": "µM"}, {"measurement": "GI50", "setting": "SF-268 CNS", "result": 17, "unit": "µM"}, {"measurement": "TGI", "setting": "SF-268 CNS", "result": 37.9, "unit": "µM"}, {"measurement": "GI50", "setting": "SF-295 CNS", "result": 26.1, "unit": "µM"}, {"measurement": "TGI", "setting": "SF-295 CNS", "result": "> 71.1", "unit": "µM"}, {"measurement": "GI50", "setting": "SF-539 CNS", "result": 20.9, "unit": "µM"}, {"measurement": "TGI", "setting": "SF-539 CNS", "result": "> 58.6", "unit": "µM"}, {"measurement": "GI50", "setting": "SK-MEL-2 melanoma", "result": 20.5, "unit": "µM"}, {"measurement": "TGI", "setting": "SK-MEL-2 melanoma", "result": 36.9, "unit": "µM"}, {"measurement": "GI50", "setting": "SK-MEL-28 melanoma", "result": 36.4, "unit": "µM"}, {"measurement": "TGI", "setting": "SK-MEL-28 melanoma", "result": "> 86.9", "unit": "µM"}, {"measurement": "GI50", "setting": "SK-MEL-5 melanoma", "result": 16.1, "unit": "µM"}, {"measurement": "TGI", "setting": "SK-MEL-5 melanoma", "result": 30.6, "unit": "µM"}, {"measurement": "GI50", "setting": "SN12C renal", "result": 17, "unit": "µM"}, {"measurement": "TGI", "setting": "SN12C renal", "result": 43, "unit": "µM"}, {"measurement": "GI50", "setting": "SNB-19 CNS", "result": 23.4, "unit": "µM"}, {"measurement": "TGI", "setting": "SNB-19 CNS", "result": 71.7, "unit": "µM"}, {"measurement": "GI50", "setting": "SNB-75 CNS", "result": 15, "unit": "µM"}, {"measurement": "TGI", "setting": "SNB-75 CNS", "result": 36.5, "unit": "µM"}, {"measurement": "GI50", "setting": "SR leukemia", "result": 8.25, "unit": "µM"}, {"measurement": "TGI", "setting": "SR leukemia", "result": 21.3, "unit": "µM"}, {"measurement": "GI50", "setting": "SW-620 colon", "result": 18.6, "unit": "µM"}, {"measurement": "TGI", "setting": "SW-620 colon", "result": 34, "unit": "µM"}, {"measurement": "GI50", "setting": "T-47D breast", "result": 17.7, "unit": "µM"}, {"measurement": "TGI", "setting": "T-47D breast", "result": 46.6, "unit": "µM"}, {"measurement": "GI50", "setting": "TK-10 renal", "result": 18.3, "unit": "µM"}, {"measurement": "TGI", "setting": "TK-10 renal", "result": 36.2, "unit": "µM"}, {"measurement": "GI50", "setting": "UACC-257 melanoma", "result": 18.1, "unit": "µM"}, {"measurement": "TGI", "setting": "UACC-257 melanoma", "result": 34.2, "unit": "µM"}, {"measurement": "GI50", "setting": "UACC-62 melanoma", "result": 16.6, "unit": "µM"}, {"measurement": "TGI", "setting": "UACC-62 melanoma", "result": 33.5, "unit": "µM"}, {"measurement": "GI50", "setting": "UO-31 renal", "result": 22.3, "unit": "µM"}, {"measurement": "TGI", "setting": "UO-31 renal", "result": "> 100", "unit": "µM"}]}
